Test results from article PMC9143880, “Improving Antimicrobial Activity and Physico-Chemical Properties by Isosteric Replacement of 2-Aminothiazole with 2-Aminooxazole” (Pharmaceuticals, 2022).
≈ marks a conversion by molar mass, not a printed value. Read-outs that look alike come from different tables or passages of the source.

Columns and labels:
[1] = test system: Aspergillus flavus CCM 8363; experiment: Antifungal microdilution broth (EUCAST); settings: Aspergillus flavus, CCM8363, 24 h, read-out: MIC AFla
[2] = test system: Mycobacterium tuberculosis H37Ra ITM-M006710 (ATCC 9431); experiment: Antimycobacterial MIC, microdilution broth / Alamar Blue (resazurin); format: cell-based; settings: for MIC: Mycobacterium tuberculosis
[3] = test system: Candida tropicalis CCM 8264 (ATCC 750); experiment: Antifungal microdilution broth (EUCAST); settings: Candida tropicalis, 24 h, read-out: MIC CT
[4] = test system: Candida krusei CCM 8271 (ATCC 6258); experiment: Antifungal microdilution broth (EUCAST); settings: Pichia kudriavzevii, 24 h, read-out: MIC CK
[5] = test system: Trichophyton interdigitale CCM 8377 (ATCC 9533); experiment: Antifungal microdilution broth (EUCAST); settings: Trichophyton interdigitale, 72 h, read-out: MIC TI
[6] = test system: Staphylococcus aureus subsp. aureus CCM 4223 (ATCC 29213); experiment: Antibacterial microdilution broth (EUCAST); format: cell-based; settings: Staphylococcus aureus; 24h incubation; read-out: MIC SA
[7] = RP-UHPLC lipophilicity parameter log k’w; format: physicochemical; settings: for log k’w: RP-UHPLC, acetonitrile/water, log k extrapolated to 0% acetonitrile; for logkw: experimental lipophilicity parameter
Outline: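 log k’w from isocratic RP-UHPLC with an acetonitrile/water mobile phase, using 40, 45 and 50% acetonitrile for subtype I and 20, 30 and 40% for subtype II. A single run was made at each mobile-phase composition.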

[8] = test system: Pseudomonas aeruginosa CCM 3955 (ATCC 27853); experiment: Antibacterial microdilution broth (EUCAST); format: cell-based; settings: Pseudomonas aeruginosa; 72h incubation; read-out: MIC PA
[9] = test system: Aspergillus fumigatus ATCC 204305; experiment: Antifungal microdilution broth (EUCAST); settings: Aspergillus fumigatus, ATCC204305, 24 h, read-out: MIC AF
[10] = test system: Candida albicans CCM 8320 (ATCC 24433); experiment: Antifungal microdilution broth (EUCAST); settings: Candida albicans, 24 h, read-out: MIC CA
[11] = test system: Acinetobacter baumannii DSM 30007 (ATCC 19606); experiment: Antibacterial microdilution broth (EUCAST); format: cell-based; settings: Acinetobacter baumannii; 24h incubation; read-out: MIC AB
[12] = test system: Enterococcus faecalis CCM 4224 (ATCC 29212); experiment: Antibacterial microdilution broth (EUCAST); format: cell-based; settings: Enterococcus faecalis; 24h incubation; read-out: MIC EF
[13] = test system: Candida parapsilosis CCM 8260 (ATCC 22019); experiment: Antifungal microdilution broth (EUCAST); settings: Lodderomyces parapsilosis, 24 h, read-out: MIC CP
[14] = test system: Staphylococcus aureus subsp. aureus (MRSA) CCM 4750 (ATCC 43300); experiment: Antibacterial microdilution broth (EUCAST); format: cell-based; settings: Staphylococcus aureus; 24h incubation; read-out: MIC MRSA
[15] = test system: M. kansasii DSM 44162 (ATCC 12478); experiment: Antimycobacterial MIC, microdilution broth / resazurin; format: cell-based; settings: Mycobacterium kansasii, read-out: MIC M. kansasii
[16] = test system: M. smegmatis DSM 43465 (ATCC 607); experiment: Antimycobacterial MIC, microdilution broth / resazurin; format: cell-based; settings: Mycolicibacterium smegmatis; resazurin after 48 h; read-out: MIC M. smegmatis
[17] = test system: Lichtheimia corymbifera CCM 8077; experiment: Antifungal microdilution broth (EUCAST); settings: Lichtheimia corymbifera, CCM8077, 24 h, read-out: MIC LC
[18] = test system: Staphylococcus epidermidis CCM 4418 (ATCC 12228); experiment: Antibacterial microdilution broth (EUCAST); format: cell-based; settings: Staphylococcus epidermidis; 24h incubation; read-out: MIC SE
[19] = test system: M. aurum DSM 43999 (ATCC 23366); experiment: Antimycobacterial MIC, microdilution broth / resazurin; format: cell-based; settings: Mycolicibacterium aurum; resazurin after 72 h; read-out: MIC M. aurum
[20] = test system: Escherichia coli CCM 3954 (ATCC 25922); experiment: Antibacterial microdilution broth (EUCAST); format: cell-based; settings: Escherichia coli; 24h incubation; read-out: MIC EC
[21] = test system: M. avium DSM 44156 (ATCC 25291); experiment: Antimycobacterial MIC, microdilution broth / resazurin; format: cell-based, Mycobacterium avium; settings: Mycobacterium avium; resazurin after 96 h; read-out: MIC M. avium
HepG2 cells = experiment: HepG2 cytotoxicity screening (CellTiter 96); format: cell-based, human; settings: for IC50: Homo sapiens, HepG2, 24 h, 24 h incubation, CellTiter 96, * above highest tested concentration, ** limited by insolubility in medium; for SI: SI = IC50 (µM) HepG2 / MICH37Ra (µM)
[22] = 120 h, Middlebrook 7H9, resazurin after 120 h, read-out: Mtb H37Ra MIC
[23] = Middlebrook 7H9, resazurin after 120 h

Row | SMILES | MIC [1] [µM] | MIC [2, 22] [µg/mL] | MIC [3] [µM] | MIC [4] [µM] | MIC [5] [µM] | MIC [6] [µM] | log k’w [7] | logkw [7] | MIC [8] [µM] | MIC [9] [µM] | MIC [10] [µM] | MIC [11] [µM] | MIC [12] [µM] | MIC [13] [µM] | MIC [14] [µM] | melting point [°C] | MIC [16] [µg/mL] | MIC [17] [µM] | MIC [18] [µM] | MIC [19] [µg/mL] | further results
1 | Cc1cc(C(=O)Nc2nccs2)cc(Cl)n1 [Compound 7a] | > 125 | ≥ 500 | > 125 | > 125 | > 125 | > 500 | 2.319 | 2.319 | > 500 | > 125 | > 125 | > 500 | > 500 | > 125 | > 500 | 198.6 | ≥ 500 | > 125 | > 500 | ≥ 500 | MIC ([15]; resazurin after 96 h): ≥ 500 µg/mL; MIC [20]: > 500 µM; MIC [21]: ≥ 500 µg/mL; IC50 (HepG2 cells): > 250 µM
2 | O=C(Nc1nccs1)c1cnc2ccccc2n1 [Compound 10a] | > 500 | ≥ 250 | > 500 | > 500 | > 500 | > 500 | 2.530 | 2.53 | > 500 | > 500 | > 500 | > 500 | > 500 | > 500 | > 500 | 251.4 | ≥ 250 | > 500 | > 500 | ≥ 250 | MIC ([15]; resazurin after 96 h): 7.81 µg/mL (≈ 30.5 µM); MIC [20]: > 500 µM; MIC [21]: ≥ 250 µg/mL; IC50 (HepG2 cells): > 50 µM
3 | O=C(Nc1nc(-c2ccccc2)cs1)c1ccccn1 [Compound 11a] | > 500 | 3.91 to 7.81 | > 500 | > 500 | > 500 | > 500 | 3.102 | 3.102 | > 500 | > 500 | > 500 | > 500 | > 500 | > 500 | > 500 | 128 to 130 | ≥ 500 | > 500 | > 500 | ≥ 500 | Mtb H37Ra MIC [2, 23]: 3.91 µg/mL; MIC ([2]; recalculated from µg/mL, read-out: MICH37Ra): 13.9 µM; MIC ([15]; 96 h): 3.91 µg/mL (≈ 13.9 µM); MIC [20]: > 500 µM; MIC [21]: ≥ 500 µg/mL; IC50 (HepG2 cells): > 100 µM; SI (HepG2 cells): >7.2
4 | O=C(Nc1nc(-c2ccccc2)co1)c1ccccn1 [Compound 11b] | 500 (≈ 133 µg/mL) | 3.91 to 7.81 | 500 (≈ 133 µg/mL) | 500 (≈ 133 µg/mL) | 62.5 (≈ 16.6 µg/mL) | 500 (≈ 133 µg/mL) | 2.038 | 2.038 | > 500 | 500 (≈ 133 µg/mL) | 500 (≈ 133 µg/mL) | > 500 | > 500 | 500 (≈ 133 µg/mL) | 500 (≈ 133 µg/mL) | 107 to 109 | 125 (≈ 471 µM) | 125 (≈ 33.2 µg/mL) | 125 (≈ 33.2 µg/mL) | 31.2 (≈ 118 µM) | Mtb H37Ra MIC [2, 23]: 3.91 µg/mL; MIC ([2]; read-out: MICH37Ra, recalculated from µg/mL): 14.7 µM; MIC ([15]; 96 h): 3.91 µg/mL (≈ 14.7 µM); MIC [20]: > 500 µM; MIC [21]: 31.2 µg/mL (≈ 118 µM); IC50 (HepG2 cells): 883 µM; SI (HepG2 cells): >67.8
5 | Cc1cncc(C(=O)Nc2nc(-c3ccccc3)co2)c1 [Compound 14b] | > 500 | ≥ 250 | > 500 | > 500 | > 500 | 250 (≈ 69.8 µg/mL) | 1.478 | 1.478 | > 250 | > 500 | > 500 | > 250 | > 250 | > 500 | 250 (≈ 69.8 µg/mL) | 258.6 | ≥ 250 | > 500 | 250 (≈ 69.8 µg/mL) | ≥ 250 | MIC ([15]; resazurin after 96 h): ≥ 250 µg/mL; MIC [20]: > 250 µM; MIC [21]: ≥ 250 µg/mL; IC50 (HepG2 cells): > 100 µM
6 | O=C(Nc1nc(-c2ccccc2)co1)c1cnccn1 [Compound 17b] | > 500 | 15.6 | > 500 | > 500 | > 500 | > 500 | 1.306 | 1.306 | > 500 | > 500 | > 500 | > 500 | > 500 | > 500 | > 500 | 140 to 142 | ≥ 500 | > 500 | > 500 | 125 (≈ 469 µM) | MIC ([15]; 96 h): 15.6 µg/mL (≈ 58.7 µM); MIC [20]: > 500 µM; MIC [21]: ≥ 500 µg/mL; IC50 (HepG2 cells): > 1000 µM
